According to patent US20220096468A1 (priority 2018, published 2022):
Values joined by “and” are separate entries in the source; they are usually repeats but may differ in a detail not shown here. Identical values can stand only once. Like-named read-outs stand apart in the source and are kept apart here. Marks after values point to notes of the source that are not given here.

Columns and labels:
[1] = target: RdRp of the influenza virus (replicon activity) (Influenza A virus, UniProt P03431); test: Influenza virus RdRp replicon reporter (Luc) assay in transduced 293T cells; type: cell-based, Influenza A/PR/8/34 (H1N1); conditions: for inhibition at 10 µM: read-out: Replicon inhibiting percentage; for IC50: read-out: T-705 50% inhibitory concentration
293T cells = test: Amount of intracellular T-705RTP in 293T cells by LC/MS/MS; type: cell-based, human; conditions: 293T cells cultured 24 hours with T-705 and 6-mercaptopurine; FIG. 1
Method: As described above, the pyrazine derivative or a salt thereof undergoes ribosyl phosphorylation in a cell. […] In order to examine whether or not the effect of 6-mercaptopurine to reinforce the activity of T-705, which was shown in Test Example 1, is caused by a change in the amount of T-705RTP, the amount of T-705RTP in 293T cells was measured under the treatment with 6-mercaptopurine.
293T cells (5×10^5 cells) seeded in each well of a 6-well plate were cultured with a vehicle (0.3% DMSO) or with 6-mercaptopurine, T-705, or the two drugs in various concentrations, under conditions of 5% CO2 at 37° C. for 24 hours.
After completion of the culture, the reaction mixture was washed with 2 ml of PBS, and 300 μl of trypsin was then added thereto. The obtained mixture was left at rest at 37° C. for 5 minutes, and the cells were then removed. Subsequently, 400 μl of a trypsin inhibitor was added and suspended into the cells, and the cell suspension was then recovered in a 1.5-ml tube. The cell suspension was centrifuged at 1,000 rpm at 4° C. for 2 minutes (MX-301, TOMY), and 500 μl of a supernatant was then removed. […]
The measurement of the number of cells and an LC/MS/MS analysis were carried out, and the amount of T-705RTP in each sample was then measured. […]

[2] = system: influenza virus (PR/8(H1N1)); test: microbe, parasite or virus in culture; type: cell-based; conditions: for IC50: unidentified influenza virus, MDCK, MDCK cells
[3] = system: influenza virus (PR/8(H1N1)); type: cell-based
Punta Toro virus = type: cell-based
[4] = HEK-293T, T-705 10 μM, antimetabolite 0.08 μM
[5] = HEK-293T, T-705 10 μM, antimetabolite 0.4 μM
[6] = HEK-293T, T-705 10 μM, antimetabolite 2.0 μM
[7] = HEK-293T, T-705 10 μM, antimetabolite 10.0 μM
[8] = T-705 0 μM, antimetabolite 0.08 μM
[9] = T-705 0 μM, antimetabolite 0.4 μM
[10] = T-705 0 μM, antimetabolite 2.0 μM
[11] = T-705 0 μM, antimetabolite 10.0 μM
[12] = HEK-293T, single agent, without T-705, read-out: replicon inhibiting percentage

Chain of RdRp of the influenza virus (replicon activity) (P03431 whole entry, looked up): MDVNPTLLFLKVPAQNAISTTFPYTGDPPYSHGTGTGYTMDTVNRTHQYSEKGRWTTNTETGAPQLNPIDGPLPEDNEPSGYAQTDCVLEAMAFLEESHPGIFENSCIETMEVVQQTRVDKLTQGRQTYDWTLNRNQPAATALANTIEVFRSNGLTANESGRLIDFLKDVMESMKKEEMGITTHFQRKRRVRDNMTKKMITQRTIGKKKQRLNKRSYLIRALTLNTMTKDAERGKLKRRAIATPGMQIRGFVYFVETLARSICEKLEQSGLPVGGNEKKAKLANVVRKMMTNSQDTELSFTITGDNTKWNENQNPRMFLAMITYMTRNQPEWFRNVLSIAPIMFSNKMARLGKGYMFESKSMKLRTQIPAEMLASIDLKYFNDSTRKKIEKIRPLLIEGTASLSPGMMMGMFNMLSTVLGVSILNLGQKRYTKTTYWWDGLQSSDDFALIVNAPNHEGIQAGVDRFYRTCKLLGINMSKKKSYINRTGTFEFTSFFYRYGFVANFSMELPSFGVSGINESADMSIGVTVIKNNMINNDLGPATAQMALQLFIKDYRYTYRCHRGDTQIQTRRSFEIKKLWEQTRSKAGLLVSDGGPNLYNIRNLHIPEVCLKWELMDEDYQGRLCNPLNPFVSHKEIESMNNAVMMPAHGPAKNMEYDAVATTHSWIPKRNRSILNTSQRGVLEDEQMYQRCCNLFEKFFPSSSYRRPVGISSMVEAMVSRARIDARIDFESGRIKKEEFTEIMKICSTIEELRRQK

SMILES: Sc1ncnc2nc[nH]c12 [6-Mercaptopurine, 6-mercaptopurine]
- inhibition at 10 µM [1, 4]: 1.8%
- inhibition at 10 µM [1, 5]: 3.7%
- inhibition at 10 µM [1, 6]: 17%
- inhibition at 10 µM [1, 7]: 38%
- inhibition at 200 µM ([1]; HEK-293T, single agent, <200 μM, without T-705, read-out: replicon inhibiting percentage): < 50%
- Replicon inhibiting percentage [1, 8]: −1.1%
- Replicon inhibiting percentage [1, 9]: 1.5%
- Replicon inhibiting percentage [1, 10]: 2.7%
- Replicon inhibiting percentage [1, 11]: 8.2%
- amount of T-705RTP in the cells after the treatment of T-705 (293T cells): increased
- CPE inhibitory effects ([2]; single agent, 10 μM): did not exhibit CPE inhibitory effects

SMILES: Cn1cnc([N+](=O)[O-])c1Sc1ncnc2nc[nH]c12 [Azathioprine, azathioprine]
- inhibition at 10 µM [1, 4]: 3.3%
- inhibition at 10 µM [1, 5]: 1.3%
- inhibition at 10 µM [1, 6]: 5.9%
- inhibition at 10 µM [1, 7]: 26%
- Replicon inhibiting percentage [1, 8]: 3.1%
- Replicon inhibiting percentage [1, 9]: −6.1%
- Replicon inhibiting percentage [1, 10]: 3.4%
- Replicon inhibiting percentage [1, 11]: 5.8%

SMILES: CN(Cc1cnc2nc(N)nc(N)c2n1)c1ccc(C(=O)N[C@@H](CCC(=O)O)C(=O)O)cc1 [Methotrexate, methotrexate]
- inhibition at 10 µM [1, 4]: 11%
- inhibition at 10 µM [1, 5]: 36%
- inhibition at 10 µM [1, 6]: 34%
- inhibition at 10 µM [1, 7]: 37%
- inhibition at 20 µM [1, 12]: < 50%
- Replicon inhibiting percentage [1, 8]: 1.3%
- Replicon inhibiting percentage [1, 9]: 18%
- Replicon inhibiting percentage [1, 10]: 20%
- Replicon inhibiting percentage [1, 11]: 19%

SMILES: C#CCC(Cc1cnc2nc(N)nc(N)c2n1)c1ccc(C(=O)N[C@@H](CCC(=O)O)C(=O)O)cc1 (some centres unmarked) [Pralatrexate, pralatrexate]
- inhibition at 10 µM [1, 4]: 33%
- inhibition at 10 µM [1, 5]: 33%
- inhibition at 10 µM [1, 6]: 33%
- inhibition at 10 µM [1, 7]: 35%
- inhibition at 20 µM [1, 12]: < 50%
- Replicon inhibiting percentage [1, 8]: 24%
- Replicon inhibiting percentage [1, 9]: 23%
- Replicon inhibiting percentage [1, 10]: 2%
- Replicon inhibiting percentage [1, 11]: 23%

SMILES: NC(=O)c1ncn([C@@H]2O[C@H](CO)[C@@H](O)[C@H]2O)n1 [Ribavirin]
- minimum drug concentration which exhibits complete CPE suppression effect ([3]; used alone): 30 µM

SMILES: NC(=O)c1nc(F)cnc1O [T-705, 6-Fluoro-3-hydroxy-2-pyrazinecarboxamide]
- IC50 ([1]; 6-Mercaptopurine concentration 0 μM): 310 µM
- IC50 ([1]; 6-Mercaptopurine concentration 0.03 μM): 303 µM
- IC50 ([1]; 6-Mercaptopurine concentration 0.09 μM): 275 µM
- IC50 ([1]; 6-Mercaptopurine concentration 0.27 μM): 219 µM
- IC50 ([1]; 6-Mercaptopurine concentration 0.82 μM): 163 µM
- IC50 ([1]; 6-Mercaptopurine concentration 2.5 μM): 67 µM
- IC50 ([1]; 6-Mercaptopurine concentration 7.4 μM): 16 µM
- IC50 ([1]; 6-Mercaptopurine concentration 22 μM): 2.3 µM
- IC50 ([1]; 6-Mercaptopurine concentration 67 μM): 5.1 µM
- IC50 ([1]; 6-Mercaptopurine concentration 200 μM): 23 µM
- IC50 ([1]; Methotrexate concentration 0 μM): 314 µM
- IC50 ([1]; Methotrexate concentration 0.08 μM): 46 µM
- IC50 ([1]; Methotrexate concentration 0.16 μM): 43 µM
- IC50 ([1]; Methotrexate concentration 0.31 μM): 41 µM
- IC50 ([1]; Methotrexate concentration 0.63 μM): 47 µM
- IC50 ([1]; Methotrexate concentration 1.25 μM): 40 µM
- IC50 ([1]; Methotrexate concentration 2.5 μM): 38 µM
- IC50 ([1]; Methotrexate concentration 5 μM): 39 µM
- IC50 ([1]; Methotrexate concentration 10 μM): 28 µM
- IC50 ([1]; Methotrexate concentration 20 μM): 30 µM
- IC50 ([1]; Pralatrexate concentration 0 μM): 304 µM
- IC50 ([1]; Pralatrexate concentration 0.08 μM): 32 µM
- IC50 ([1]; Pralatrexate concentration 0.16 μM): 31 µM
- IC50 ([1]; Pralatrexate concentration 0.31 μM): 25 µM
- IC50 ([1]; Pralatrexate concentration 0.63 μM): 29 µM
- IC50 ([1]; Pralatrexate concentration 1.25 μM): 18 µM
- IC50 ([1]; Pralatrexate concentration 2.5 μM): 24 µM
- IC50 ([1]; Pralatrexate concentration 5 μM): 25 µM
- IC50 ([1]; Pralatrexate concentration 10 μM): 22 µM
- IC50 ([1]; Pralatrexate concentration 20 μM): 23 µM
- Replicon inhibiting percentage ([1]; T-705 10 μM, antimetabolite 0 μM (T-705 alone)): 0.58% and 2.2% and −1.8% and −2.3% and −7.8%
- LogTCID50 value that shows the effect of reducing the virus amount with respect to the infection control (Punta Toro virus): 1.0*
- IC50 ([2]; read-out: T-705 50% concentration (50% inhibitory concentration of T-705), 6-Mercaptopurine concentration 0 μM): 1.97 µM
- IC50 ([2]; read-out: T-705 50% concentration (50% inhibitory concentration of T-705), 6-Mercaptopurine concentration 0.1 μM): 1.83 µM
- IC50 ([2]; read-out: T-705 50% concentration (50% inhibitory concentration of T-705), 6-Mercaptopurine concentration 0.3 μM): 1.32 µM
- IC50 ([2]; read-out: T-705 50% concentration (50% inhibitory concentration of T-705), 6-Mercaptopurine concentration 1 μM): 0.77 µM
- IC50 ([2]; read-out: T-705 50% concentration (50% inhibitory concentration of T-705), 6-Mercaptopurine concentration 3 μM): 0.7 µM
- IC50 ([2]; read-out: T-705 50% concentration (50% inhibitory concentration of T-705), 6-Mercaptopurine concentration 10 μM): 0.38 µM
- minimum drug concentration which exhibits complete CPE suppression effect ([3]; 6-mercaptopurine (10 μM) added): 0.3 µM
- minimum drug concentration which exhibits complete CPE suppression effect ([3]; 6-mercaptopurine (10 μM) and Ribavirin (3 μM) added): 0.1 µM
- minimum drug concentration which exhibits complete CPE suppression effect ([3]; used alone): 3 µM

SMILES: NC(=O)c1nccnc1O [T-1105, 3-hydroxy-pyrazinecarboxamide]
- LogTCID50 value that shows the effect of reducing the virus amount with respect to the infection control (Punta Toro virus): 0.0

SMILES: Cn1c(=O)c2[nH]cnc2n(C)c1=O [Theophylline, theophylline]
- LogTCID50 value that shows the effect of reducing the virus amount with respect to the infection control (Punta Toro virus): excellent effect of reducing the virus amount

SMILES: Nc1nc2nc[nH]c2c(=S)[nH]1 [Thioguanine]
- inhibition at 10 µM [1, 4]: -1.2%
- inhibition at 10 µM [1, 6]: 14%
- inhibition at 10 µM [1, 7]: 23%
- Replicon inhibiting percentage [1, 8]: −4.8%
- Replicon inhibiting percentage [1, 9]: −5.4%
- Replicon inhibiting percentage [1, 10]: −3.7%
- Replicon inhibiting percentage [1, 11]: 12%

SMILES: NC(=O)c1csc([C@@H]2O[C@H](CO)[C@@H](O)[C@H]2O)n1 [Tiazofurin, tiazofurin]
- LogTCID50 value that shows the effect of reducing the virus amount with respect to the infection control (Punta Toro virus): excellent effect of reducing the virus amount
